Test results published in US20240067600A1, “SMALL MOLECULE INHIBITORS OF THE MITOCHONDRIAL PERMEABILITY TRANSITION PORE (mtPTP)” (UNIVERSITY OF KANSAS, priority 2014, published 2024).

Experiments:
[1] = tested on: exon 9 col6a1 morphant zebrafish; test: Spontaneous coiling of exon 9 col6a1 morphant zebrafish embryos; assay type: in vivo; conditions: 5 and 10 μM in fish water from 21 hpf; read at 24 hpf
Procedure: (§1) Zebrafish and embryo maintenance. Adult zebrafish were maintained in the facility of the University of Padova containing aerated, 28.5° C.-conditioned saline water according to standard protocols. Fish were kept under a 14 h light-10 h dark cycle. For mating, males and females were separated in the late afternoon, and were freed to start courtship the next morning, which ended with egg deposition and fecundation. Eggs were collected, washed with fish water (0.5 mM NaH2PO4, 0.5 mM NaHPO4, 0.2 mg/L methylene blue, 3 mg/L instant ocean) and embryos were maintained at 28.5° C. All protocols and manipulations with zebrafish were performed as described in C. B. Kimmel, W. W. Ballard, S. R. Kimmel, B. Ullmann, T. F. Schilling, Dev. Dyn. […]
(§2) Motor activity. Spontaneous coiling rates were recorded by observing the number of coiling events in 15 s for single embryos at 24 hpf using light microscopy. Touch-evoked escape response was measured at 48 hpf by observing the ability of larvae to escape after touching the body with a little tip. […]
(§3) Statistical analysis. Differences between control and compound treated samples were determined by one-way ANOVA test with Bonferroni correction using GraphPad Prism (version 5.1 for Windows). […] For FIG. 3, the total number of embryos used is n=35 for each condition; *p<0.05, ***p<0.001, as determined by χ^2 test and oneway ANOVA with Bonferroni correction.

[2] = tested on: exon 9 col6a1 morphant zebrafish; test: Touch-evoked escape response of exon 9 col6a1 morphant zebrafish embryos; assay type: in vivo; conditions: 5 and 10 μM in fish water from 21 hpf; read at 48 hpf
Procedure: as §1, §2, §3

[3] = tested on: exon 9 col6a1 morphant zebrafish; test: Muscle birefringence assay in exon 9 col6a1 morphant zebrafish embryos; assay type: in vivo
Procedure: as §1, with “C.” for “C. B. Kimmel, W. W. Ballard, S. R. Kimmel, B. Ullmann, T. F. Schilling, Dev. Dyn.”
Birefringence assay. Muscle birefringence was measured at 48 hpf on tricaine-anesthetized embryos by taking advantage of muscle fiber anisotropy. It was measured using two polarizing filters on a Leica M165FC stereomicroscope. Briefly, anesthetized embryos were placed on a glass slide, and muscle light refraction was analyzed by using two polarizing filters. […] Integrated area of birefringence was calculated by using ImageJ software, as disclosed in J. Berger, T. Sztal, P. D. Currie, Biochem. Biophys. […]
Statistical analysis. Differences between control and compound treated samples were determined by one-way ANOVA test with Bonferroni correction using GraphPad Prism (version 5.1 for Windows). […]

[4] = tested on: mtPTP; test: Calcium retention capacity (CRC) assay on isolated mitochondria; assay type: biochemical, mice; conditions: Table 1, average ± SEM; for Calcium Retention Capacity (CRC/CRC0 at 12.5 μM): 12.5 μM compound
Procedure: Assay buffer: 250 mM sucrose, 10 mM MOPS-Tris, 0.01 mM EGTA-Tris, 1.0 mM phosphoric acid-Tris, pH 7.4. • Solution 1. 10 mM glutamate and 5 mM malate in Assay buffer. • Solution 2. 1% DMSO in Solution 2. • Solution 3. 0.5 mg/mL mitochondria and 1.0 μM Calcium Green-5N in Assay Buffer. • Solution 4. 0.25 mM CaCl2).
Protocol Summary: • 1. Freshly isolate mitochondria, prepare solutions according to the recipes in the Reagent Section. • 2. Dispense 100 μL of Solution 2 to Columns 1-2 (negative control) of the 96-well black assay plate (Falcon 353376). • 3. Dispense 200 μL of Solution 1 to Row A Columns 3-12. • 4. Next, dispense 100 μL of Solution 2 to Rows B-H Columns 3-12. • 5. Add 4 μL of 5 mM test compounds in DMSO to Row A Columns 3-12, perform 1:2 serial dilutions Row A to H Columns 3-12. • 6. Finally, dispense 100 μL of Solution 3 in all wells. • 7. Experiment starts. Read Calcium Green-5N fluorescence (excitation 485 nm, emission 538 nm) and perform a train of 4 μL Solution 4 additions with Fluoroskan Ascent FL, Thermo Scientific.

[5] = tested on: Mitochondrial Permeability Transition Pore; test: Mitochondrial swelling absorbance assay; assay type: biochemical, mice; conditions: Table 1; average ± SEM
Procedure: Mitochondrial Swelling (Hit Validation, Confirmatory Assay, Concentration-Response, AID No. 720722)
Assay buffer: 250 mM sucrose, 10 mM MOPS-Tris, 0.01 mM EGTA-Tris, 1.0 mM phosphoric acid-Tris, pH 7.4 • Solution 1. 5.0 mM glutamate and 2.5 mM malate in Assay buffer. • Solution 2. 80-120 μM CaCl2) depending on mitochondrial activity in Solution 1. Note: Concentration of Ca^2+ in the assay is dependent upon the activity of the isolated mitochondria which is determined via a calcium titration just before each screening batch. A Ca^2+ concentration is used that allows for the arrival at a 2:1 window at the 20 minute time period. • Solution 3. 1% DMSO in Solution 2. • Solution 4. 2.0 mM EGTA-Tris, pH 7.4 in Solution 3. • Solution 5. 0.5 mg/mL mitochondria in Assay Buffer.
Protocol Summary: • 1. Freshly isolate mitochondria, prepare solutions according to the recipes in the reagent section • 2. Dispense 100 μL of Solution 4 to Columns 1-2 and Solution 3 Columns 11-12 (positive and negative controls, respectively) of the 96-well clear assay plate (Falcon 353072) • 3. Dispense 200 μL of Solution 1 to Row A Columns 3-10. • 4. Next, dispense 100 μL of Solution 3 to Rows B-H Columns 3-10. • 5. Add 4 μL of 5 mM test compounds in DMSO to Row A Columns 3-10, perform 1:2 serial dilutions Row A to H Columns 3-10. • 6. Finally, dispense 100 μL of Solution 5 in all wells. The reaction starts. • 7. Keep the plate at room temperature for 20 minutes and then read absorbance at 540 nm on MultiSkan EX, Thermo Scientific.
Concentration-Response Assay to Identify Compounds that Inhibit Mitochondrial Swelling (SAR Assay AID No. 743359)
Assay buffer: 250 mM sucrose, 10 mM MOPS-Tris, 0.01 mM EGTA-Tris, 1.0 mM phosphoric acid, pH 7.4 • Solution 1. 5.0 mM glutamate and 2.5 mM malate in Assay Buffer. • Solution 2. 100-120 μM CaCl2) depending on mitochondrial activity in Solution 1. Note: Concentration of Ca^2+ in the assay is dependent upon the activity of the isolated mitochondria which is determined via a calcium titration just before each screening batch. A Ca^2+ concentration is used that allows for the arrival at a 2:1 window at the 20 minute time period. • Solution 3. 1% DMSO in Solution 2. • Solution 4. 2.0 mM EGTA-Tris, pH 7.4 in Solution 3. • Solution 5. 0.5 mg/mL mitochondria in Assay Buffer.
Protocol Summary: • 1. Freshly isolate mitochondria, prepare solutions according to the recipes in the Reagent Section. • 2. Dispense 100 μL of Solution 4 to Columns 1-2 and Solution 3 Columns 11-12 (positive and negative controls, respectively) of the 96-well clear assay plate (Falcon 353072). • 3. Dispense 200 μL of Solution 1 to Row A Columns 3-10. • 4. Next, dispense 100 μL of Solution 3 to Rows B-H Columns 3-10. • 5. Add 4 μL of 5 mM test compounds in DMSO to Row A Columns 3-10, perform 1:2 serial dilutions Row A to H Columns 3-10. • 6. Finally, dispense 100 μL of Solution 5 in all wells. The reaction starts. • 7. Keep the plate at room temperature for 20 minutes and then read absorbance at 540 nm on MultiSkan EX, Thermo Scientific.

[6] = tested on: IMM potential; test: Rhodamine 123 (Rh123) uptake counterscreen; assay type: biochemical, mice; conditions: Table 1; read-out: Rh123 uptake (EC50);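 note: isolated mitochondria respiring on glutamate plus malate in sucrose MOPS-Tris buffer at pH 7.4, Rh123 added with the organelles, compounds tested across a twofold dilution series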
Procedure: Assay buffer: 250 mM sucrose, 10 mM MOPS-Tris, 0.01 mM EGTA-Tris, 1.0 mM phosphoric acid-Tris, pH 7.4 • Solution 1. 5.0 mM glutamate and 2.5 mM malate in Assay Buffer. • Solution 2. 1% DMSO in Solution 1. • Solution 3. 0.8 μM FCCP (the stock 40 μM in DMSO) in Solution 1. • Solution 4. 0.5 mg/mL mitochondria and 0.8 μM Rh123 in Assay Buffer.
Protocol Summary: • 1. Freshly isolate mitochondria, prepare solutions according to the recipes in the Reagent Section. • 2. Dispense 100 μL of Solution 3 to Columns 1-2 and Solution 2 Columns 11-12 (positive and negative controls, respectively) of the 96-well black assay plate (Falcon 353376). • 3. Dispense 200 μL of Solution 1 to Row A Columns 3-10. • 4. Next, dispense 100 μL of Solution 2 to Rows B-H Columns 3-10. • 5. Add 4 μL of 10 mM test compounds in DMSO to Row A Columns 3-10, perform 1:2 serial dilutions Row A to H Columns 3-10. • 6. Finally, dispense 100 μL of Solution 4 in all wells. The reaction starts. • 7. Keep the plate at room temperature for 5 minutes and then read fluorescence (excitation 485 nm, emission 538 nm) on Fluoroskan Ascent FL, Thermo Scientific.
Concentration-Response Counterscreen Assay to Identify Compounds that Prevent Mitochondrial Swelling Via Interference with the IMM Potential (SAR Assay AID No. 743361)
Assay buffer: 250 mM sucrose, 10 mM MOPS-Tris, 0.01 mM EGTA-Tris, 1.0 mM phosphoric acid-Tris, pH 7.4 • Solution 1. 5.0 glutamate and 2.5 mM malate in Assay Buffer. • Solution 2. 1% DMSO in Solution 1. • Solution 3. 0.8 μM FCCP (the stock 40 μM in DMSO) in Solution 1. • Solution 4. 0.5 mg/mL mitochondria and 0.8 μM Rh123 in Assay Buffer.

Cc1c(Cl)cccc1NC(=O)c1cc(-c2ccc(F)c(O)c2)on1 [compound 60, N-(3-Chloro-2-methylphenyl)-5-(4-fluoro-3-hydroxyphenyl)isoxazole-3-carboxamide] was tested, and the “motor function: spontaneous coiling events (FIG. 1)” value [1] was “dramatic improvement in motor function”, the “motor function: touch-evoked response (FIG. 2)” value [2] was “dramatic improvement in motor function” and the “muscle defects by muscle birefringence (FIG. 3)” value ([3]; 5 and 10 μM in fish water from 21 hpf, read at 48 hpf) was “largely ameliorated”. For the same molecule, the total birefringence scores ([3]; 48 hpf, ANOVA, p<0.05) was “significant recovery of muscle defects”.

For COc1ccc(Cl)cc1C(=O)Nc1ccc(CCN2CCN(C(=O)OC(C)(C)C)CC2)cc1 [drawing 148], the “Calcium Retention Capacity (CRC/CRC0 at 12.5 μM)” value [4] was 1.37 ± 0.02, the EC50 [5] was 7.61 ± 0.839 µM and the EC50 [6] was over 100 µM.

With COc1ccc(Cl)cc1C(=O)Nc1ccc(CN2CCNCC2)cc1 [drawing 151] the “Calcium Retention Capacity (CRC/CRC0 at 12.5 μM)” value [4] was 1.24 ± 0.04, the EC50 [5] was 6.87 ± 0.423 µM and the EC50 [6] was over 100 µM.

With COc1ccc(Cl)cc1C(=O)Nc1ccc(CN2CCNCC2)cc1 [drawing 153] the “Calcium Retention Capacity (CRC/CRC0 at 12.5 μM)” value [4] was 1.65 ± 0.06, the EC50 [5] was 2.15 ± 0.1 µM and the EC50 [6] was over 100 µM.

COc1ccc(Cl)cc1C(=O)Nc1ccc(CCN2CCNCC2)cc1 [drawing 154] was tested, and the “Calcium Retention Capacity (CRC/CRC0 at 12.5 μM)” value [4] was 1.31 ± 0.03, the EC50 [5] was 7.25 ± 0.526 µM and the EC50 [6] was over 100 µM.

In the case of O=C(Nc1cccc(Cl)c1)c1cc(-c2cccc(O)c2)on1 [drawing 182], the “Calcium Retention Capacity (CRC/CRC0) at 1.56 μM” value ([4]; 1.56 μM compound) is reported as 4.13 ± 0.17 (at 1.56 μM), the EC50 [5] is reported as 0.0788 ± 0.0058 µM and the EC50 [6] is reported as over 100 µM.

In the case of O=C(Nc1cc(Cl)cc(Cl)c1)c1cc(-c2ccc(F)c(O)c2)on1 [drawing 191], the “Calcium Retention Capacity (CRC/CRC0 at 12.5 μM)” value [4] is reported as 11.22 ± 1.22, the EC50 [5] is reported as 0.076 ± 0.0092 µM and the EC50 [6] is reported as over 100 µM.

In the case of O=C(Nc1cccc(Cl)c1Cl)c1cc(-c2ccc(F)c(O)c2)on1 [drawing 193], the “Calcium Retention Capacity (CRC/CRC0 at 12.5 μM)” value [4] is reported as 11.21 ± 1.38, the EC50 [5] is reported as 0.071 ± 0.0011 µM and the EC50 [6] is reported as over 100 µM.

For COc1ccc(-c2cc(C(=O)Nc3cc(Cl)ncc3C)no2)cc1O [drawing 202], the “Calcium Retention Capacity (CRC/CRC0 at 12.5 μM)” value [4] was 4.27 ± 0.40, the EC50 [5] was 0.366 ± 0.0475 µM and the EC50 [6] was over 100 µM.
